Experimental data published in patent publication US9062028B2, “Bicyclic nitrogen containing heteroaryl TGR5 receptor modulators” (Bristol-Myers Squibb Company, priority 2011, dated 2015).
Structures can show the parent of a compound that is named as a salt.

Target: T1, recombinant human TGR5 (Homo sapiens, UniProt Q8TDU6)
T1 construct: expressed in transfected cells
T1 sequence (Q8TDU6 1-330): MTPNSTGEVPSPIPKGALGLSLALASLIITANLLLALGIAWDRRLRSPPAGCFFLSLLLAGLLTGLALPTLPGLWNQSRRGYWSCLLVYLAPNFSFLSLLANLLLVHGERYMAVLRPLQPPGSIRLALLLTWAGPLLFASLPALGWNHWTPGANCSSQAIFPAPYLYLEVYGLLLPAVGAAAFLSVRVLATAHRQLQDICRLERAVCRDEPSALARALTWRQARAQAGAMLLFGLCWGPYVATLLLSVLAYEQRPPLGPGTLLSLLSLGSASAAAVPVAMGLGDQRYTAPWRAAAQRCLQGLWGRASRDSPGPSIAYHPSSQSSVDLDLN
Assay: cAMP assay (cAMP accumulation, HTRF) in CHOK1 cells stably expressing TGR5
Assay type: cell-based
Settings: CHOK1 cells stably expressing human TGR5, 30 minutes at RT, 1% DMSO
In short: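 CHOK1 cells stably expressing TGR5 (text also calls it chimeric human/mouse), 0.4-0.5×10^6 cells/mL in PBS with Ca/Mg and 0.1 mM IBMX, compound 30 min at RT, 1% DMSO. cAMP by HTRF 665/620 interpolated to a standard curve; EC50 from 4-parameter fit as half-maximal increase.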

| SMILES | EC50 |
| --- | --- |
| Cc1cccc(OCCCC(=O)N2CCCc3c(-c4cnn(Cc5cncc(C(=O)O)c5)c4)cccc32)c1C [Example 359, 5-((4-(1-(4-(2,3-Dimethylphenoxy)butanoyl)-1,2,3,4-tetrahydroquinolin-5-yl)-1H-pyrazol-1-yl)methyl) nicotinic acid, TFA salt] | 1.65 µM |
| COC(=O)c1ccc(Cl)c(Cn2cc(-c3cccc4c3SCCN4C(=O)OCCOc3cccc(Cl)c3C)cn2)c1 [Example 367, 2-(3-Chloro-2-methylphenoxy)ethyl 8-(l-(2-chloro-5-(methoxycarbonyl)benzyl)-1H-pyrazol-4-yl)-2H-benzo[b][1,4]thiazine-4(3H)-carboxylate] | 0.186 µM |
| Cc1c(Cl)cccc1OCCOC(=O)N1CCSc2c(-c3cnn(Cc4cccc(OCC(=O)O)c4)c3)cccc21 [Example 375, 2-(3-((4-(4-((2-(3-Chloro-2-methylphenoxy)ethoxy)carbonyl)-3,4-dihydro-2H-benzo[b][1,4]thiazin-8-yl)-1H-pyrazol-1-yl)methyl)phenoxy)acetic acid] | 0.188 µM |
| Cc1cccc(OCCCC(=O)N2CCCOc3c(-c4cnn(Cc5c(F)cc(C(=O)O)cc5Cl)c4)cccc32)c1C [Example 392, 3-Chloro-4-((4-(5-(4-(2,3-dimethylphenoxy)butanoyl)-2,3,4,5-tetrahydrobcnzo[b] [1,4]oxazepin-9-yl)-1H-pyrazol-1-yl)methyl)-5-fluorobenzoic acid] | 0.189 µM |
| [2H]C([2H])(COC(=O)N1CCCOc2c(-c3cnn(Cc4c(F)cc(C(=O)O)cc4Cl)c3)cccc21)Oc1cccc(Cl)c1C [Example 418, 3-Chloro-4-((4-(5-((2-(3-chloro-2-methylphenoxy)-2,2-dideuteroethoxy)carbonyl)-2,3,4,5-tetrahydrobenzo[b][1,4]oxazepin-9-yl)-1H-pyrazol-1-yl)methyl)-5-fluorobenzoic acid] | 0.185 µM |
| Cc1cccc(OCCCC(=O)N2CCCc3c(-c4cnn(Cc5cccc(-c6nnn(CC(=O)O)n6)c5)c4)cccc32)c1C [Example 430, 2-(5-(3-((4-(1-(4-(2,3-Dimethylphenoxy)butanoyl)-1,2,3,4-tetrahydroquinolin-5-yl)-1H-pyrazol-1-yl)methyl)phenyl)-2H-tetrazol-2-yl) acetic acid] | 0.197 µM |
| Cc1c(Cl)cccc1OCCOC(=O)N1C[C@@H]2C[C@@H]2c2c(-c3cnn(Cc4cccc(C(C)(C)O)c4)c3)cccc21 [Example 434, (1aR,7bS)-2-(3-Chloro-2-methylphenoxy)ethyl 7-(1-(3-(2-hydroxypropan-2-yl)benzyl)-1H-pyrazol-4-yl)-1a,2-dihydro-1H-cyclopropa [c]quinoline-3(7bH)-carboxylate] | 0.183 µM |
| Cc1c(Cl)cccc1OCCOC(=O)N1C[C@@H]2C[C@@H]2c2c(-c3cnn(Cc4ccc(C(=O)O)cc4Cl)c3)cccc21 [Example 436, 3-Chloro-4-((4-((1aR,7bS)-3-((2-(3-chloro-2-methylphenoxy)ethoxy)carbonyl)-1a,2,3,7b-tetrahydro-1H-cyclopropa[c]quinolin-7-yl)-1H-pyrazol-1-yl)methyl)benzoic acid] | 0.171 µM |
| COC(=O)c1ccc(O)c(Cn2cc(-c3cccc4c3[C@H]3C[C@H]3CN4C(=O)OCCOc3cccc(Cl)c3C)cn2)c1 [Example 447, (1aR,7bS)-2-(3-Chloro-2-methylphenoxy)ethyl 7-(1-(2-hydroxy-5-(methoxycarbonyl)benzyl)-1H-pyrazol-4-yl)-1a,2-dihydro-1H-cyclopropa[c] quinoline-3(7bH)-carboxylate] | 1.59 µM |
| Cc1c(Cl)cccc1OCCOC(=O)N1C[C@@H]2C[C@@H]2c2c(-c3cnn(Cc4cc(OCCOCC(=O)O)ccc4Cl)c3)cccc21 [Example 448, 2-(2-(4-Chloro-3-((4-((1aR,7bS)-3-((2-(3-chloro-2-methylphenoxy)ethoxy)carbonyl)-1a,2,3,7b-tetrahydro-1H-cyclopropa[c]quinolin-7-yl)-1H-pyrazol-1-yl)methyl)phenoxy)ethoxy)acetic acid] | 0.183 µM |
| Cc1cccc(OCCCC(=O)N2CCCc3c(-c4cnn(Cc5ccc[n+](CC(=O)O)c5)c4)cccc32)c1C [Example 466, 1-(Carboxymethyl)-3-((4-(1-(4-(2,3-dimethylphenoxy)butanoyl)-1,2,3,4-tetrahydroquinolin-5-yl)-1H-pyrazol-1-yl)methyl)pyridinium, TFA salt] | 3.93 µM |
| Cc1cccc(OCCCC(=O)N2CCCc3c(-c4cnn(Cc5ccc[n+](C)c5)c4)cccc32)c1C [Example 467, 3-((4-(1-(4-(2,3-Dimethylphenoxy)butanoyl)-1,2,3,4-tetrahydroquinolin-5-yl)-1H-pyrazol-1-yl)methyl)-1-methylpyridinium] | 2.96 µM |
| Cc1cccc(OCCCC(=O)N2CCCc3c(-c4cnn(Cc5cccc(N(C)C(=O)NCC[N+](C)(C)C)c5)c4)cccc32)c1C [Example 471, 2-(3-(3-((4-(1-(4-(2,3-Dimethylphenoxy)butanoyl)-1,2,3,4-tetrahydroquinolin-5-yl)-1H-pyrazol-1-yl)methyl)phenyl)-3-methylureido)-N,N,N-trimethylethanaminium, TFA salt] | 2.17 µM |
| Cc1cccc(OCCCC(=O)N2CCCc3c(-c4cnn(Cc5cccc(N(C)C(=O)N(C)CC[N+](C)(C)C)c5)c4)cccc32)c1C [Example 472, 2-(3-(3-((4-(1-(4-(2,3-Dimethylphenoxy)butanoyl)-1,2,3,4-tetrahydroquinolin-5-yl)-1H-pyrazol-1-yl)methyl)phenyl)-1,3-dimethylureido)-N,N,N-trimethylethanaminium, TFA salt] | 1.84 µM |
| Cc1cccc(OCCCC(=O)N2CCCc3c(-c4cnn(Cc5cccc(C(=O)N(CC(=O)O)CC(=O)O)c5)c4)cccc32)c1C [Example 475, 2,2′-(3-((4-(1-(4-(2,3-Dimethylphenoxy)butanoyl)-1,2,3,4-tetrahydroquinolin-5-yl)-1H-pyrazol-1-yl)methyl)benzoylazanediyl)diacetic acid] | 2.6 µM |
| Cc1cccc(OCCCC(=O)N2CCCc3c(-c4cnn(Cc5cccc(C(=O)N(C)[C@@H](CC(=O)O)C(=O)O)c5)c4)cccc32)c1C [Example 481, (S)-2-(3-((4-(1-(4-(2,3-Dimethylphenoxy)butanoyl)-1,2,3,4-tetrahydroquinolin-5-yl)-1H-pyrazol-1-yl)methyl)-N-methylbenzamido)succinic acid] | 1.53 µM |

The remaining lines, values ahead:

| EC50 | SMILES |
| --- | --- |
| 4.15 µM | Cc1cccc(OCCCC(=O)N2CCCc3c(-c4cnn(CC(=O)C(C)(C)CC(=O)O)c4)cccc32)c1C [Example 493, 5-(4-(1-(4-(2,3-Dimethylphenoxy)butanoyl)-1,2,3,4-tetrahydroquinolin-5-yl)-1H-pyrazol-1-yl)-3,3-dimethyl-4-oxopentanoic acid] |
| 0.195 µM | Cc1cccc(OCCCC(=O)N2CCCc3c(-c4cnn(Cc5cccc(NC(=O)C(N)C(O)(C(F)(F)F)C(F)(F)F)c5)c4)cccc32)c1C (centres unmarked) [Example 500, 2-Amino-N-(3-((4-(1-(4-(2,3-dimethylphenoxy)butanoyl)-1,2,3,4-tetrahydroquinolin-5-yl)-1H-pyrazol-1-yl)methyl)phenyl)-4,4,4-trifluoro-3-hydroxy-3-(trifluoromethyl) butanamide] |
| 1.73 µM | Cc1cccc(OCCCC(=O)N2CCOc3c(-c4cnn(Cc5cccc(S(=O)(=O)N[C@@H](CCC[N+](C)(C)C)C(=O)O)c5)c4)cccc32)c1C [Example 505, (S)-4-Carboxy-4-(3-((4-(4-(4-(2,3-dimethylphenoxy)butanoyl)-3,4-dihydro-2H-benzo [b][1,4]oxazin-8-yl)-1H-pyrazol-1-yl)methyl)phenyl-sulfonamido)-N,N, N-trimethylbutan-1-aminium, TFA salt] |
| 1.61 µM | Cc1c(Cl)cccc1OCCCC(=O)N1CCCOc2c(-c3cnn(Cc4cccc(NS(=O)(=O)c5cccc(C(=O)O)c5)c4)c3)cccc21 [Example 506, 3-(N-(3-((4-(5-(4-(3-Chloro-2-methylphenoxy)butanoyl)-2,3,4,5-tetrahydrobenzo [b][1,4]oxazepin-9-yl)-1H-pyrazol-1-yl)methyl)phenyl)sulfamoyl) benzoic acid] |
| 2.11 µM | Cc1cccc(OCCCC(=O)N2CCCc3c(-c4cnn(Cc5cccc(S(=O)(=O)N[C@@H](CCC[N+](C)(C)C)C(=O)O)c5)c4)cccc32)c1C [Example 507, (S)-4-Carboxy-4-(3-((4-(1-(4-(2,3-dimethylphenoxy)butanoyl)-1,2,3,4-tetrahydroquinolin-5-yl)-1H-pyrazol-1-yl)methyl)phenyl-sulfonamido)-N,N, N-trimethylbutan-1-aminium] |
| 0.176 µM | Cc1c(Cl)cccc1OCCCC(=O)N1CCCOc2c(-c3cnn(Cc4cccc(NC(=O)NCC(=O)O)c4)c3)cccc21 [Example 521, 2-(3-(3-((4-(5-(4-(3-Chloro-2-methylphenoxy)butanoyl)-2,3,4,5-tetrahydrobenzo[b] [1,4]oxazepin-9-yl)-1H-pyrazol-1-yl)methyl)phenyl)ureido)acetic acid] |
| 1.5 µM | Cc1cccc(OCCCC(=O)N2CCCOc3c(-c4cnn(Cc5cccc(N(C)C(=O)NCS(=O)(=O)O)c5)c4)cccc32)c1C [Example 526, (3-(3-((4-(5-(4-(2,3-Dimethylphenoxy)butanoyl)-2,3,4,5-tetrahydrobenzo [b][1,4]oxazepin-9-yl)-1H-pyrazol-1-yl)methyl)phenyl)-3-methylureido) methanesulfonic acid] |
